For 16 compounds, inhibition, melting point and EC50 results are on record in patent US9493402B2, “Omega-aminoalkylamides of R-2-aryl-propionic acids as inhibitors of the chemotaxis of polymorphonucleate and mononucleate cells” (Dompé S.p.A., priority 2001, dated 2016).

As usually defined, the inhibition is the relative decrease from the control value, in per cent. Low values mean a response near the control, high ones a response far below the control. A word on the melting point: it is the temperature of the solid-liquid transition.

For data set [1], the system named is human PMNs (rhIL-8 induced chemotaxis). The data set is described as follows: IL-8-induced chemotaxis of human PMNs (microchamber assay). Format: cell-based. Particulars: IL-8 10 ng/mL; for inhibition at 0.01 µM: compound 10^-8 M; for inhibition at 1 µM: compound c = 10^-6 M. The protocol: (§1) The compounds of the invention of formula (I) were evaluated “in vitro” for their ability to inhibit chemotaxis of polymorphonucleate leukocytes (hereinafter referred to as PMNs) and monocytes, induced by the fractions of the complement C5a and C5a-desArg. For this purpose, to isolate the PMNs from heparinized human blood, taken from healthy adult volunteers, mononucleates were removed by means of sedimentation on dextrane (according to the procedure disclosed by W. J. Ming et al., J. Immunol., 138, 1469, 1987) and red blood cells by a hypotonic solution. The cell vitality was calculated by exclusion with Trypan blue, whilst the ratio of PMNs was estimated on the cytocentrifugate after staining with Diff Quick.
(§2) In the chemotaxis experiments, the PMNs were incubated with the compounds of the invention of formula (I) for 15′ at 37° C. in an atmosphere containing 5% CO2.
(§3) The chemotactic activity of the C5a was evaluated on human circulating polymorphonucleates (PMNs) resuspended in HBSS at a concentration of 1.5×10^6 PMNs per ml.
(§4) During the chemotaxis assay (according to W. Falket et al., J. Immunol. Methods, 33, 239, 1980) PVP-free filters with a porosity of 5 mcm and microchambers suitable for carrying out the test were used.
The compounds of the invention in formula (I) were evaluated at a concentration ranging between 10^−6 and 10^−10 M; for this purpose they were added, at the same concentration, both to the lower pores and the upper pores of the microchamber. The wells in the lower part contain the solution of C5a or the simple carrier, those in the upper part contain the suspension in PMNs.
The compounds of the invention were also evaluated in their ability to inhibit IL-8-induced chemotaxis of human PMNs. For this purpose, recombinant human interleukin-8 (rhIL-8, Pepro Tech) was used: the lyophilized protein was dissolved in HBSS (Hank's balanced salts solution) at the concentration of 100 mcg/mL and then diluted down to a concentration of 10 ng/mL in the chemotaxis experiments. R(−)-2-[(4′-isobutyl)phenyl]-propionyl methansulfonamide (ED50=10^−9 M) described in WO 00/24710, was used as reference standard.

The test system of data set [2] is human circulating polymorphonucleates (PMNs), C5a induced chemotaxis. Briefly: C5a-induced chemotaxis of human PMNs (microchamber assay). Format: cell-based. Conditions: compound 10^-5 M (so in the source), C5a 1 ng/mL. The procedure:
as §1
The fractions hr-C5a and hrC5a-desArg (Sigma) were used as stimulating agents in chemotaxis experiments, obtaining practically identical results.
Lyophilized C5a was dissolved in a volume of HBSS containing 0.2% BSA so as to obtain a stock solution having a concentration of 10^−5 M, to be diluted in HBSS to a concentration of 10^−9 M, for the chemotaxis assays.
as §2, §3, §4
[…] The wells in the lower part contain the solution of C5a or the simple carrier, those in the upper part contain the suspension in PMNs.
Inhibition of C5a-induced chemotactic activity by the individual compounds of the invention of formula (I) was evaluated by incubating the microchamber for the chemotaxis for 60 min at 37° C. in an atmosphere containing 5% CO2.

Data set [3] deals with human PMNs (rhIL-8 induced chemotaxis). Conditions: reference standard; rhIL-8 10 ng/mL; read-out: ED50 (inhibition of IL-8-induced chemotaxis of human PMNs); cited from earlier work.

Structures can show the parent of a compound that is named as a salt.

In the case of `CC(C)Cc1ccc([C@@H](C)C(=O)N[C@@H]2C[C@H]3CC[C@@H](C2)N3C)cc1` [(R) 2-(4-isobutylphenyl)-N-(exo-8-methyl-8-aza-bicyclo[3.2.1]oct-3-yl)propionamide hydrochloride], in data set [1], 0.01 µM produced 3 ± 8% inhibition. 10 µM produced 57 ± 6% inhibition in data set [2] (1 h).

As for `CC(C)Cc1ccc([C@@H](C)C(=O)NCC(=O)NCCN(C)C)cc1` [R-2-[(4′-isobutylphenyl]-N-[2-(dimethylaminoethyl)aminocarbonylmethyl]-propionamide hydrochloride], testing at 0.01 µM in data set [1] gave an inhibition of 31 ± 6%. Besides, the inhibition at 10 µM in data set [2] (1 h) came to 68 ± 4%.

The compound `CC(C)Cc1ccc([C@@H](C)C(=O)NCCCN2CCCCC2)cc1.Cl` [(R) 2-(4-isobutylphenyl)-N-[3-(1-piperidinyl)propyl]propionamide hydrochloride] showed a melting point of 76 to 80 °C. At 0.01 µM the inhibition in data set [1] was 46 ± 8%. Moreover, in data set [2] (1 h), the inhibition at 10 µM turned out to be 76 ± 6%.

As for `CC(C)Cc1ccc([C@@H](C)C(=O)NC2CCN(C)CC2)cc1` [(R) 2-(4-isobutylphenyl)-N-(1-methyl-piperidin-4-yl)propionamide hydrochloride], the inhibition at 0.01 µM in data set [1] turned out to be 4 ± 9%. Besides, the inhibition at 10 µM in data set [2] (1 h) was found to be 48 ± 8%.

The compound `CC(C)Cc1ccc([C@@H](C)C(=O)NCCCN(C)C)cc1.Cl` [(R) 2-(4-isobutylphenyl)-N-(3-dimethylaminopropyl)propionamide hydrochloride] had a melting point of 95 to 98 °C. The compound further yielded an inhibition at 0.01 µM in data set [1] of 51 ± 15%. The compound further gave an inhibition at 10 µM in data set [2] (1 h) of 65 ± 14%.

As to `CC(C)c1cccc([C@@H](C)C(=O)NCCCN(C)C)c1` [(R) 2-(3-isopropylphenyl)-N-3-(dimethylaminopropyl)propionamide], in data set [1], the inhibition at 0.01 µM was 5 ± 6% and testing at 1 µM gave an inhibition of 48 ± 2%. This compound gave an inhibition at 10 µM in data set [2] (1 h) of 42 ± 18%. In addition, the inhibition at 10 µM in data set [2] worked out at 42 ± 18%.

Regarding `CC(C)Cc1ccc([C@@H](C)C(=O)NS(C)(=O)=O)cc1` [R(−)-2-[(4′-isobutyl)phenyl]-propionyl methansulfonamide], the EC50 in data set [3] was 1 nM.

For `CC(C)Cc1ccc([C@@H](C)C(=O)N[C@@H](CCCN2CCCCC2)C(=O)O)cc1` [sodium salt], at 0.01 µM the inhibition in data set [1] was 56 ± 9%. Besides, in data set [2] (1 h), the inhibition at 10 µM was found to be 33 ± 15%.

With `CC(C)Cc1ccc([C@@H](C)C(=O)NCCN(C)C)cc1.Cl` [(R)-2-(4-isobutylphenyl)-N-(2-dimethylaminoethyl)propionamide.HCl], the melting point lay in the range of 90 to 93 °C. For the same compound, the inhibition at 0.01 µM in data set [1] was 56 ± 13%. The same compound had an inhibition at 10 µM in data set [2] (1 h) of 62 ± 12%.

In turn, `C[C@@H](C(=O)NCCCN(C)C)c1cccc(C(=O)c2ccccc2)c1` [(R)-2-[(3-benzoyl)phenyl]-N-(3-dimethylaminopropyl)propionamide] showed an inhibition at 0.01 µM in data set [1] of 53 ± 8%. This compound showed an inhibition at 10 µM in data set [2] (1 h) of 56 ± 2%.

As for `CC(C)Cc1ccc([C@@H](C)C(=O)NCCCCN(C)C)cc1.Cl` [(R) 2-(4-isobutylphenyl)-N-(4-dimethylaminobutyl)propionamide. HCl], the melting point was in the range of 95 to 97 °C. The inhibition at 0.01 µM in data set [1] was found to be 34 ± 6%. The compound also showed an inhibition at 10 µM in data set [2] (1 h) of 55 ± 8%.

As to `CC(C)Cc1ccc([C@@H](C)C(=O)NC(CCCCN)C(=O)O)cc1` (stereo partly drawn) [(R),(S′) 2-(4′-isobutylphenyl)-N-(1-carboxy-5-aminopentyl)propionamide hydro-chloride], the inhibition at 0.01 µM in data set [1] is 5%. The same compound came in with an inhibition at 10 µM in data set [2] (1 h) of 49%.

`CC(C)Cc1ccc([C@@H](C)C(=O)NCCCN2CCOCC2)cc1.Cl` [(R) 2-(4-isobutylphenyl)-N-3-(N-morpholinylpropyl)propionamide.HCl]: the melting point lay within 90 to 93 °C. Further, the inhibition at 0.01 µM in data set [1] stood at 55 ± 12%. In data set [2] (1 h), this compound registered an inhibition at 10 µM of 24 ± 11%.

Compound `C[C@@H](C(=O)NCCCN(C)C)c1ccccc1Nc1c(Cl)cccc1Cl` [(R)-2-[2-(2,6-dichlorophenylamino)-phenyl]-N-3-(dimethylaminopropyl) propionamide] returned an inhibition at 0.01 µM in data set [1] of 1 ± 13%. Moreover, the inhibition at 1 µM in data set [1] came out at 58 ± 6%. In addition, the inhibition at 10 µM in data set [2] (1 h) and in data set [2] was 41 ± 2% in each case.

In data set [1], `CC(C)Cc1ccc([C@@H](C)C(=O)NCCCN)cc1` [(R) 2-(4-isobutylphenyl)-N-(3-aminopropyl)propionamide hydrochloride] had an inhibition at 0.01 µM of 2 ± 7%. Moreover, 10 µM produced 84 ± 8% inhibition in data set [2] (1 h).

`CC(C)Cc1ccc([C@@H](C)C(=O)NCCCN2CCN(C)CC2)cc1.Cl.Cl` yielded a melting point of 216 to 220 °C.
